According to patent US6974791B2, “Endothelial specific targeting” (The University of Pittsburgh, priority 2000, dated 2005):
“Also recorded” adds a separate entry of the source. Where no end group is shown, it is not given here.

Tests used:
[1] = test system: vessels in human xenograft PC-3 (prostate carcinoma) tumors; test: in vivo binding of intravenously injected peptide in PC-3 tumor-bearing mice (fluorescence microscopy of frozen sections); parameters: species or system mouse; details: for binding to vessels in the tumors (tumor cross-sections): five i.v. (tail vein) injections of 1 ng/mouse at one hour intervals
Description: (§1) Additionally, in vivo experiments with the prototype peptide, SEQ ID NO 3, which stained the brightest in the in vitro experiments described above, were conducted using several different assays as described below. In one in vivo assay, tumor-bearing mice were injected five times intravenously (tail vein) with 1 ng/mouse at one hour intervals. The mice were sacrificed 15 minutes after the final injection, the tumors and other normal tissues (lung, heart, muscle) were taken for fresh frozen sectioning (i.e., embedded in OCT medium and frozen) and for evaluation via fluorescence microscopy. […] Although these peptides were generated from TDEC originating from the murine SCC tumor, SEQ ID NO 3 also bound to the endothelium from a human xenograft model.
The specificity of SEQ ID NO 3 for endothelial vessels is illustrated in FIG. 7. In this experiment, PC-3 tumor-bearing mice were injected (as described above) with positive control poly-L-lysine, negative control SEQ ID NO 8 Pen G7 and peptide SEQ ID NO 3. FIG. 7A, 7B and 7C are micrographs illustrating cross-sections of PC-3 tumor from tumor-bearing mice that were injected with peptides. In each figure, the gray diamond indicates the location of the lumen of the blood vessel.

[2] = test system: tumor-derived endothelial cells (TDEC); test: in vitro binding of FITC-conjugated peptides to TDEC monolayers (fluorescent microscopy), NIH3T3 as negative control monolayer; format: cell-based, mouse; details: peptide 5 μg/ml overnight at 37° C. in PBS with 10% FCS; TDEC vs NIH3T3 monolayers
Description: Tumors were established by subcutaneous injection of 5×10^6 SCC VII cells per C3H/HeJ mouse. After a tumor had achieved a diameter of 0.5 cm to 1.0 cm and before any evidence of central necrosis, it was removed sterilely, minced, and digested with collagenases and RNAses to yield a single cell suspension. The cells were then stained using antibody for PECAM-1. The stained cells were sorted using automated flow cytometry and the positive cells were cultured as TDECs in Po Media [DMEM supplemented with 20% Sarcoma-180 conditioned media, 10% Fetal Calf Serum, 1% BME vitamin, 1% heparin, and 0.005% endothelial cell growth supplement (Collaborative Research)].
Evidence for specific binding of oligopeptides to TDEC was accomplished as follows. The most frequently repetitive sequences obtained from the 100 clones were used for synthesis of oligopeptides (Sigma Genesis). By conjugating fluorescein isothiocynate ([…]) to the carboxyl termini of peptides, these molecules were tested for in vitro binding with TDECs and NIH3T3 cells (negative control cell line). These peptides contained flanking cysteines so that a disulfide loop may be reformed, thus constraining and mimicking the binding condition of the initial selection process. […]

[3] = test system: vessels in murine SCC (squamous cell) tumors; test: in vivo binding of intravenously injected peptide in tumor-bearing mice, murine SCC tumor model (fluorescence microscopy of frozen sections); parameters: species or system mouse
Description: as §1

[4] = test system: human soft tissue sarcoma and prostate carcinoma tumor sections (endothelium); test: triple staining of fresh frozen human tumor sections with FITC-tagged peptide, anti-Factor VIII antibody and nuclear stain; format: binding; details: fresh frozen sections snap fixed in paraformaldehyde
Description: The ability of novel peptide motifs of the present invention to cross-react with tissues from different sources was tested using human samples from a pathologist-diagnosed soft tissue sarcoma and a prostate carcinoma. Fresh frozen tumor sections were snap fixed in paraformaldehyde, and then triple stained for fluorescence microscopic analysis, the results of which are shown in FIG. 8. The staining included: a stain for cell nuclei, and anti-Factor VIII antibody (secondary antibody labeled with Cy3 red fluorescent probe), and peptide SEQ ID NO 3 (tagged with FITC, green upon fluorescence). […] Factor VIII staining is specific for endothelial cells which produce and store the Factor VIII blood factor.

Row | Substance | binding to vessels in the tumors (tumor cross-sections) [1] | staining / binding specificity of FITC-labeled peptide for TDEC [2] | binding to vessels of normal tissues ([3]; murine SCC tumor-bearing mice, lung, heart, muscle, five i.v. injections of 1 ng/mouse) | binding to vessels in the tumors ([3]; murine SCC tumor, five i.v. (tail vein) injections of 1 ng/mouse at one hour intervals, sacrifice 15 minutes after final injection) | staining of human tumor sections relative to Factor VIII-positive (vascularized) regions [4] | distribution of staining in PC-3 tumor cross-section ([1]; after i.v. injection, FIG. 7C) | binding to vessels of normal tissues ([1]; lung, heart, muscle, five i.v. injections of 1 ng/mouse)
1 | CGGGGGGGC (cysteine pairing not given here) [SEQ ID NO 8 Pep G7, negative control peptide, seven glycine residues flanked by cysteines, reference compound] | no binding activity | – | – | – | – | – | –
2 | CGGRKLGGC (cysteine pairing not given here) [SEQ ID NO 2] | – | preferential staining for TDEC; also recorded: some binding specificity to TDEC | – | – | – | – | –
3 | CGGRRLGGC (cysteine pairing not given here) [SEQ ID NO 3] | preferential binding; also recorded: intense binding to the cells of the vessel | brightest staining and specificity for TDEC; also recorded: highest in vitro binding specificity to TDEC | no binding to the vessels of normal tissues | preferential binding | observed primarily in the regions of the tissue that were vascularized | limited to the blood vessel wall | no binding to the vessels of normal tissues
4 | poly-L-lysine [reference compound] | not only bound to the cells of the blood vessel, but also diffused through the intercellular space | – | – | – | – | – | –
